Data as given in US20250346585A1 (Alexion Pharmaceuticals, Inc., priority 2022, published 2025).

The compounds below were run against Human complement C1s enzyme (Homo sapiens (Human), UniProt P09871) (assay: Human C1s enzyme assay). Conditions: Human C1s enzyme assay of Example 3; read-out: IC50 (Stars).
Sequence of Human complement C1s enzyme (P09871 438-688 limits assumed): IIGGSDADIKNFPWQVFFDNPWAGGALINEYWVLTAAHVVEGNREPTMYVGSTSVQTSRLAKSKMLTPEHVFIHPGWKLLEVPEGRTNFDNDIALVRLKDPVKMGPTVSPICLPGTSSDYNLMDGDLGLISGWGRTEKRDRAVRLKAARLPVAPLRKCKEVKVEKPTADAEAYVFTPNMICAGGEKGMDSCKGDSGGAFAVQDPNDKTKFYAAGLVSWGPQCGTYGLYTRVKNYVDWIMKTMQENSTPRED
Sequence of Human complement C1s enzyme (P09871 16-437 partner limits assumed): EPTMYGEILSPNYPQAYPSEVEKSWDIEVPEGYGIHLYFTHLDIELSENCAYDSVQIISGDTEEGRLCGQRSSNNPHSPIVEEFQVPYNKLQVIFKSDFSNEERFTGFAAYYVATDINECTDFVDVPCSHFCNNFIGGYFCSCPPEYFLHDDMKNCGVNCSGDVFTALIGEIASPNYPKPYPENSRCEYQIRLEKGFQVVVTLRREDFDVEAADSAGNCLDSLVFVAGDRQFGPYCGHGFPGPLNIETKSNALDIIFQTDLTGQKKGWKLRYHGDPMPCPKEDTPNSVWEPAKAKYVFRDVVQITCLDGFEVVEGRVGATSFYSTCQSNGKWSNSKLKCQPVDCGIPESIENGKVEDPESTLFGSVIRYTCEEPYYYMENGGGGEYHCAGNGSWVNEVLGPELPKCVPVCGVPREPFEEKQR
Type: biochemical
Procedure, shortened: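 IC50 derived by nonlinear regression of rate versus concentration, with rate taken from A405 kinetics (30 s intervals, 30 min) after adding 100 μM each Z-L-Lys-SBzl and DTNB. C1s from human serum, 1.16 nM, exposed to compound for 5 min at RT beforehand; buffer 50 mM Tris, 1 M NaCl, pH 7.5.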
C[C@@H](NC(=O)[C@@H]1CC2(CN1C(=O)CNC(=O)c1ccc3c(c1)-c1ccccc1C3(C)C)OCCO2)c1cc(C(=N)N)cs1 [Compound 94, (S)—N—((R)-1-(4-carbamimidoylthiophen-2-yl)ethyl)-7-((9,9-dimethyl-9H-fluorene-3-carbonyl)glycyl)-1,4-dioxa-7-azaspiro[4.4]nonane-8-carboxamide] showed an IC50 of under 100 nM. C[C@@H](NC(=O)[C@@H]1C[C@]2(C)C[C@@H]2N1C(=O)CNC(=O)c1ccc(Oc2ccc(F)cc2)cc1)c1ccc(C(=N)N)s1 [Compound 67, (1S,3S,5S)—N—((R)-1-(5-carbamimidoylthiophen-2-yl)ethyl)-2-((4-(4-fluorophenoxy)benzoyl)glycyl)-5-methyl-2-azabicyclo[3.1.0]hexane-3-carboxamide] gave an IC50 of under 100 nM. Work on C[C@@H](NC(=O)[C@@H]1C[C@@H](C2OCCCO2)CN1C(=O)CNC(=O)c1ccc(Oc2ccc(F)cc2)cc1)c1cc(C(=N)N)cs1 (relative stereo) [Compound 160, (2S,4R*)—N—((R)-1-(4-carbamimidoylthiophen-2-yl)ethyl)-4-(1,3-dioxan-2-yl)-1-((4-(4-fluorophenoxy)benzoyl)glycyl)pyrrolidine-2-carboxamide] yielded an IC50 of under 100 nM. Compound C[C@@H](NC(=O)[C@@H]1C[C@H](C2CCCCC2)CN1C(=O)CNC(=O)c1ccc(Oc2ccc(F)cc2)cc1)c1cc(C(=N)N)cs1 [Compound 93, (2S,4R)—N—((R)-1-(4-carbamimidoylthiophen-2-yl)ethyl)-4-cyclohexyl-1-((4-(4-fluorophenoxy)benzoyl)glycyl)pyrrolidine-2-carboxamide] has an IC50 of under 100 nM. For C[C@@H](NC(=O)[C@@H]1C[C@](F)(CN)CN1C(=O)CNC(=O)c1ccc2c(c1)-c1ccccc1C2(F)F)c1cc(C(=N)N)cs1 [Compound 35, (2S,4S)-4-(aminomethyl)-N—((R)-1-(4-carbamimidoylthiophen-2-yl)ethyl)-1-((9,9-difluoro-9H-fluorene-3-carbonyl)glycyl)-4-fluoropyrrolidine-2-carboxamide], the IC50 was under 100 nM. Compound COC(=O)/N=C(/N)c1csc([C@@H](C)NC(=O)[C@@H]2CC3(CN2C(=O)CNC(=O)c2ccc4c(c2)-c2ccccc2C4(F)F)OCCO3)c1 [Compound 148, methyl ((E)-amino(5-((R)-1-((S)-7-((9,9-difluoro-9H-fluorene-3-carbonyl)glycyl)-1,4-dioxa-7-azaspiro[4.4]nonane-8-carboxamido)ethyl)thiophen-3-yl)methylene)carbamate] has an IC50 of under 100 nM. C[C@@H](NC(=O)[C@@H]1CC2(CN1C(=O)CNC(=O)c1ccc3oc4ccccc4c3c1)OCCO2)c1cc(C(=N)N)cs1 [Compound 137, (S)—N—((R)-1-(4-carbamimidoylthiophen-2-yl)ethyl)-7-((dibenzo[b,d]furan-2-carbonyl)glycyl)-1,4-dioxa-7-azaspiro[4.4]nonane-8-carboxamide] was tested, and the IC50 was under 100 nM. Compound C[C@@H](NC(=O)[C@@H]1C[C@@H](OC(F)F)CN1C(=O)CNC(=O)c1ccc(C(F)(F)c2ccccc2)cc1)c1cc(C(=N)N)cs1 [Compound 131, (2S,4R)—N—((R)-1-(4-carbamimidoylthiophen-2-yl)ethyl)-1-((4-(difluoro(phenyl)methyl)benzoyl)glycyl)-4-(difluoromethoxy)pyrrolidine-2-carboxamide] has an IC50 of under 100 nM.

Same assay, conditions: Human complement C1s enzyme 1.16 nM, substrate Z-L-Lys-SBzl 100 μM, assay of Example 3; read-out: IC50 (Stars)
Compound C[C@@H](NC(=O)[C@@H]1C[C@@H](c2ccncc2)CN1C(=O)CNC(=O)c1ccc2c(c1)-c1ccccc1C2(F)F)c1cc(C(=N)N)cs1 [Compound 377, (2S,4S)—N—((R)-1-(4-carbamimidoylthiophen-2-yl)ethyl)-1-((9,9-difluoro-9H-fluorene-3-carbonyl)glycyl)-4-(pyridin-4-yl)pyrrolidine-2-carboxamide] has an IC50 of under 100 nM. Work on CC(=O)Nc1csc(CNC(=O)[C@@H]2CC3(CN2C(=O)CNC(=O)c2ccc(Oc4ccc(F)cc4)cc2)OCCO3)c1 [Compound 288, (S)-N-((4-acetamidothiophen-2-yl)methyl)-7-((4-(4-fluorophenoxy)benzoyl)glycyl)-1,4-dioxa-7-azaspiro[4.4]nonane-8-carboxamide] yielded an IC50 of over 1000 nM. In the case of C[C@@H](NC(=O)[C@@H]1C[C@@H](OC(F)F)CN1C(=O)CNC(=O)c1ccc2[nH]c3ccccc3c2c1)c1cc(C(=N)N)cs1 [Compound 326, N-(2-((2S,4R)-2-(((R)-1-(4-carbamimidoylthiophen-2-yl)ethyl)carbamoyl)-4-(difluoromethoxy)pyrrolidin-1-yl)-2-oxoethyl)-9H-carbazole-3-carboxamide], the IC50 is reported as under 100 nM. In the case of COC(=O)/N=C(/N)c1csc([C@@H](C)NC(=O)[C@@H]2C[C@](F)(CF)CN2C(=O)CNC(=O)c2ccc(Oc3ccc(F)cc3)cc2)c1 [Compound 233, methyl ((E)-amino(5-((R)-1-((2S,4R)-4-fluoro-4-(fluoromethyl)-1-((4-(4-fluorophenoxy)benzoyl)glycyl)pyrrolidine-2-carboxamido)ethyl)thiophen-3-yl)methylene)carbamate], the IC50 is reported as under 100 nM. With C[C@@]12C[C@@H]1N(C(=O)CNC(=O)c1ccc3c(c1)-c1ccccc1C3(F)F)[C@H](C(=O)Nc1cc(C(=N)N)cs1)C2 [Compound 259, (1S,3S,5S)—N-(4-carbamimidoylthiophen-2-yl)-2-((9,9-difluoro-9H-fluorene-3-carbonyl)glycyl)-5-methyl-2-azabicyclo[3.1.0]hexane-3-carboxamide] the IC50 was over 1000 nM. With CCCCCCOC(=O)/N=C(/N)c1csc([C@@H](C)NC(=O)[C@@H]2C[C@](F)(CF)CN2C(=O)CNC(=O)c2ccc(Oc3ccc(F)cc3)cc2)c1 [Compound 234, hexyl ((E)-amino(5-((R)-1-((2S,4R)-4-fluoro-4-(fluoromethyl)-1-((4-(4-fluorophenoxy)benzoyl)glycyl)pyrrolidine-2-carboxamido)ethyl)thiophen-3-yl)methylene)carbamate] the IC50 was under 100 nM. With C[C@@H](NC(=O)[C@@H]1C[C@]2(CN3CCOCC3)C[C@@H]2N1C(=O)CNC(=O)c1ccc2c(c1)-c1ccccc1C2(F)F)c1cc(C(=N)N)cs1 [Compound 267, (1S,3S,5S)—N—((R)-1-(4-carbamimidoylthiophen-2-yl)ethyl)-2-((9,9-difluoro-9H-fluorene-3-carbonyl)glycyl)-5-(morpholinomethyl)-2-azabicyclo [3.1.0]hexane-3-carboxamide] the IC50 was under 100 nM. C[C@@H](NC(=O)[C@@H]1C[C@@H]([S@@](C)(=N)=O)CN1C(=O)CNC(=O)c1ccc2c(c1)-c1ccccc1C2(F)F)c1cc(C(=N)N)cs1 [Compound 252, (2S,4R)—N—((R)-1-(4-carbamimidoylthiophen-2-yl)ethyl)-1-((9,9-difluoro-9H-fluorene-3-carbonyl)glycyl)-4-((S)—S-methylsulfonimidoyl)pyrrolidine-2-carboxamide] showed an IC50 of under 100 nM.

Same assay, conditions: Human complement C1s enzyme 1.16 nM, substrate Z-L-Lys-SBzl; assay of Example 3; read-out: IC50 (Stars)
Compound COC[C@@]1(F)C[C@@H](C(=O)N[C@H](C)c2cc(C(=N)N)cs2)N(C(=O)CNC(=O)c2ccc3c(c2)-c2ccccc2C3C)C1 (stereo partly drawn) [Compound 418, (2S,4R)—N—((R)-1-(4-carbamimidoylthiophen-2-yl)ethyl)-4-fluoro-4-(methoxymethyl)-1-((9-methyl-9H-fluorene-3-carbonyl)glycyl)pyrrolidine-2-carboxamide] has an IC50 of under 100 nM.
